From ChEMBL document CHEMBL3880428, “Sulfonamide derivative having PGD2 receptor antagonistic activity” (2012)

Legend:
Format in all cases: cell-based
[1] = system: HEK293; assay: Selectivity ratio of IC50 for PGD2 receptor in human platelets to IC50 for human EP1 receptor expressed in HEK293 cells by cAMP accumulation assay
[2] = system: HEK293; assay: Selectivity ratio of IC50 for PGD2 receptor in human platelets to IC50 for human EP2 receptor expressed in HEK293 cells by cAMP accumulation assay
[3] = system: HEK293; assay: Selectivity ratio of IC50 for PGD2 receptor in human platelets to IC50 for human EP3 receptor expressed in HEK293 cells by cAMP accumulation assay
[4] = system: HEK293; assay: Selectivity ratio of IC50 for PGD2 receptor in human platelets to IC50 for human EP4 receptor expressed in HEK293 cells by cAMP accumulation assay
[5] = system: HEK293; assay: Selectivity ratio of IC50 for PGD2 receptor in human platelets to IC50 for human FP receptor expressed in HEK293 cells by cAMP accumulation assay
[6] = system: HEK293; assay: Selectivity ratio of IC50 for PGD2 receptor in human platelets to IC50 for human TP receptor expressed in HEK293 cells by cAMP accumulation assay
[7] = system: HEK293; assay: Selectivity ratio of IC50 for PGD2 receptor in human platelets to IC50 for human IP receptor expressed in HEK293 cells by cAMP accumulation assay

Measured: Ratio IC50

Cc1cc(C(=O)Nc2ccc(N3CCN(S(=O)(=O)c4ccc(OC(C)C)cc4)CC3)cc2OCC(=O)O)no1
> 20: all assays above

CC(C)Oc1ccc(S(=O)(=O)N2CCN(c3ccc(OCc4ccoc4)c(OCC(=O)O)c3)CC2)cc1
> 20: all assays above

CC(C)Oc1ccc(S(=O)(=O)N2CCN(c3ccc(NC(=O)c4ccccn4)c(OCC(=O)O)c3)CC2)cc1
> 20: all assays above

CC(C)Oc1ccc(S(=O)(=O)N2CCN(c3ccc(C(=O)NCc4ccccn4)c(OCC(=O)O)c3)CC2)cc1
> 20: all assays above

CC(C)Sc1ccc(S(=O)(=O)N2CCN(c3ccc(Cl)c(OCC(=O)O)c3)CC2)cc1
> 20: all assays above

CC(C)Oc1ccc(S(=O)(=O)N2CCN(c3ccc(Br)c(OCC(=O)O)c3)CC2)cc1
> 20: all assays above

CC(C)Oc1ccc(S(=O)(=O)N2CCN(c3ccc(C(=O)Nc4ccn(C)n4)c(OCC(=O)O)c3)CC2)cc1
> 20: all assays above

CC(C)Oc1ccc(S(=O)(=O)N2CCN(c3ccc(Cl)c(/C=C/C(=O)O)c3)CC2)cc1
> 20: all assays above

CC(C)Oc1ccc(S(=O)(=O)N2CCC(Oc3ccccc3/C=C/C(=O)O)CC2)cc1
> 20: all assays above

CC(C)Oc1ccc(S(=O)(=O)N2CCN(c3ccc(C(=O)Nc4cc(C5CC5)n[nH]4)c(OCC(=O)O)c3)CC2)cc1
> 20: all assays above

CC(C)Oc1ccc(S(=O)(=O)N2CCN(c3ccc(Cl)c(OCC(=O)O)c3)CC2)cn1
> 20: all assays above

CC(C)Oc1ccc(S(=O)(=O)N2CCN(c3cccc(OCC(=O)O)n3)CC2)cc1
> 20: all assays above

CC(C)Oc1ccc(S(=O)(=O)N2CCN(c3ccc(C(=O)Nc4nncs4)c(OCC(=O)O)c3)CC2)cc1
> 20: all assays above

CC(C)Oc1ccc(S(=O)(=O)N2CCN(c3ccc(Oc4ccccc4)c(OCC(=O)O)c3)CC2)cc1
> 20: all assays above

CC(=O)c1ccc(N2CCN(S(=O)(=O)c3ccc(OC(C)C)cc3)CC2)cc1OCC(=O)O
> 20: all assays above

CC(C)Oc1ccc(S(=O)(=O)N2CCN(c3ccc(-c4nnco4)c(OCC(=O)O)c3)CC2)cc1
> 20: all assays above

CC(C)Oc1ccc(S(=O)(=O)N2CCN(c3cc(OCC(=O)O)cc(C(F)(F)F)c3)CC2)cc1
> 20: all assays above

CC(C)Oc1ccc(S(=O)(=O)N2CCN(c3ccc(-c4nncs4)c(OCC(=O)O)c3)CC2)cc1
> 20: all assays above

CC(C)Oc1ccc(S(=O)(=O)N2CCN(c3ccc(-c4ncco4)c(OCC(=O)O)c3)CC2)cn1
> 20: all assays above

CC(C)Oc1ccc(S(=O)(=O)N2CCN(c3ccc(Cl)c(OCC(=O)O)c3)C(C)C2)cc1 (stereo unspecified)
> 20: all assays above

CC(C)Oc1ccc(S(=O)(=O)N2CCN(c3ccc([N+](=O)[O-])c(NCC(=O)O)c3)CC2)cc1
> 20: all assays above

CC(C)Oc1ccc(S(=O)(=O)N2CCN(c3ccc(C(=O)NCc4ccco4)c(OCC(=O)O)c3)CC2)cc1
> 20: all assays above

CC(C)Oc1ccc(S(=O)(=O)N2CCN(c3cc(OCC(=O)O)cc(-c4cccs4)c3)CC2)cc1
> 20: all assays above

CC(C)Oc1ccc(S(=O)(=O)N2CCN(c3ccc(NC(=O)c4ccno4)c(OCC(=O)O)c3)CC2)cc1
> 20: all assays above

CC(C)Oc1ccc(S(=O)(=O)N2CCN(c3cc(OCC(=O)O)cc(-c4ccoc4)c3)CC2)cc1
> 20: all assays above

Cc1nnc(-c2ccc(N3CCN(S(=O)(=O)c4ccc(OC(C)C)cc4)CC3)cc2OCC(=O)O)s1
> 20: all assays above

CC(C)Oc1ccc(S(=O)(=O)N2CCN(c3ccc(C(=O)NC4CC4)c(OCC(=O)O)c3)CC2)cc1
> 20: all assays above

CC(C)Oc1ccc(S(=O)(=O)N2CCN(c3ccc(Cl)c(OCC(=O)O)c3)CC2)cc1
> 20: all assays above

Cc1nnc(-c2ccc(N3CCN(S(=O)(=O)c4ccc(OC(C)C)cc4)CC3)cc2OCC(=O)O)o1
> 20: all assays above

CC(C)Oc1ccc(S(=O)(=O)N2CCN(c3ccc(C(=O)NCC4CC4)c(OCC(=O)O)c3)CC2)cc1
> 20: all assays above

CCCNC(=O)c1ccc(N2CCN(S(=O)(=O)c3ccc(OC(C)C)cc3)CC2)cc1OCC(=O)O
> 20: all assays above

CC(C)Oc1ccc(S(=O)(=O)N2CCN(c3ccc(OCc4ccccc4)c(OCC(=O)O)c3)CC2)cc1
> 20: all assays above

CC(C)Oc1ccc(S(=O)(=O)N2CCN(c3ccc(Cl)c(CC(=O)O)c3)CC2)cc1
> 20: all assays above
